“Also recorded” adds a separate entry of the source.
Assays:
[1] = system: PDE4 partially purified from human U-937 pronocytic cells; assay: PDE4 enzyme inhibition assay (Example 3); assay type: biochemical; details: 100 μM
Method: (§1) In this example, a racemic mixture of flosequinan and the (+) and (−) enantiomers of flosequinan were subjected to biochemical enzyme assays to determine their respective percent inhibition of a variety of phosphodiesterases (PDE1-PDE6). The reaction conditions for each PDE assay were as follows.
(§2) PDE4 partially purified from human U-937 pronocytic cells was used. A racemic mixture of flosequinan, and each enantiomer of flosequinan, all at a molar concentration of 100 μM, were independently incubated with 20 μg PDE4 enzyme and 1 μM cAMP containing 0.01 μM [^3H]cAMP in Tris buffer pH 7.5 for 20 minutes at 30° C. The reaction was terminated by boiling for 2 minutes, and the resulting AMP was converted to adenosine by addition of 10 mg/ml snake venom nucleotidase and further incubation at 30° C. for 10 minutes. Unhydrolyzed cAMP was bound to AGI-X2 resin, and the remaining [^3H]adenosine in the aqueous phase was quantitated by scintillation counting.

[2] = target: T1, PDE6 partially purified from bovine retinal rod and activated by trypsin (Bos taurus, UniProt P11541+P23439); assay: PDE6 enzyme inhibition assay (Example 3); assay type: biochemical; details: 100 μM
T1 construct: from tissue; host or cells: bovine retinal rod
T1 sequence (P11541 2-856 limits assumed): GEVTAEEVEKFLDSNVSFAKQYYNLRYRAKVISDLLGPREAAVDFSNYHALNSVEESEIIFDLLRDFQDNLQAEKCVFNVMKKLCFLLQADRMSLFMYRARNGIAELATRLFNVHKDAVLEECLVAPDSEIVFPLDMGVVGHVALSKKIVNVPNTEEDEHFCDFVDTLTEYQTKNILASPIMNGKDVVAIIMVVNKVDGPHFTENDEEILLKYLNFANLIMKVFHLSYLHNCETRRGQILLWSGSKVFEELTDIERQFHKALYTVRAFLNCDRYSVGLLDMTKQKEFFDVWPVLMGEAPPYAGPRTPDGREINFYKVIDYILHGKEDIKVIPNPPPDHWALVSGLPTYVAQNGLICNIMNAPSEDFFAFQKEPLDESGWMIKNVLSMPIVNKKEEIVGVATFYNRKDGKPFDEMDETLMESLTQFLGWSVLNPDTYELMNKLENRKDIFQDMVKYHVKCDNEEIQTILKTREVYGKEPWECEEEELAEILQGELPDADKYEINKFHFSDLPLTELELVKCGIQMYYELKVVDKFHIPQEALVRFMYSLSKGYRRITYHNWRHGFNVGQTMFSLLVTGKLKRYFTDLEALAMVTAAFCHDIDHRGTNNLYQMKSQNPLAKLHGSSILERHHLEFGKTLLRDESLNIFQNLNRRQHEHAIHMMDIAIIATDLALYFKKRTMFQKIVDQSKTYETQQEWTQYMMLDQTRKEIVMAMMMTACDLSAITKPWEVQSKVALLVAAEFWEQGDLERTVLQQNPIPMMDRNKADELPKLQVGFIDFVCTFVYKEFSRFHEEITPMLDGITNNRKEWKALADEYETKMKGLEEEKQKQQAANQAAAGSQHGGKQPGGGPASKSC
T1 sequence (P23439 2-850 limits assumed): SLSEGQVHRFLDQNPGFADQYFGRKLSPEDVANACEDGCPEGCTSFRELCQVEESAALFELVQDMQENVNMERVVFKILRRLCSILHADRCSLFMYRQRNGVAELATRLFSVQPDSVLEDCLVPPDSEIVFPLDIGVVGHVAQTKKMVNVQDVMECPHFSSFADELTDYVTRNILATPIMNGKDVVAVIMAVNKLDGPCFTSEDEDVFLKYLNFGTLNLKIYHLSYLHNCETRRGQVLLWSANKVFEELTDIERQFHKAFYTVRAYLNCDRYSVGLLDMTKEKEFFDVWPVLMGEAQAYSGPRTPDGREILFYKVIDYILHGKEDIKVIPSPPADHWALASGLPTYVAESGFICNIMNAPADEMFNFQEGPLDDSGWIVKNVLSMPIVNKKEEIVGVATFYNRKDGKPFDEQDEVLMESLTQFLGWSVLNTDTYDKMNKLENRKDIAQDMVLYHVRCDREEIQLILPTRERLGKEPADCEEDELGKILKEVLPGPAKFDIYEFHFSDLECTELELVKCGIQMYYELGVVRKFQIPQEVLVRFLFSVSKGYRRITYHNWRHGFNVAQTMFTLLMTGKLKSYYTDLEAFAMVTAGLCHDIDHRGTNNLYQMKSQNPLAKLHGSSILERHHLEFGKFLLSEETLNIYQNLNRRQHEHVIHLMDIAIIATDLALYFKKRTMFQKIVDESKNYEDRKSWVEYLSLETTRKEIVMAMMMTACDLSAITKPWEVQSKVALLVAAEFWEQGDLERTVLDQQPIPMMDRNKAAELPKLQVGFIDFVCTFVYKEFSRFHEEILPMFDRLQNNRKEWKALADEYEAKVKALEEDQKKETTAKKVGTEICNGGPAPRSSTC
Method: as §1
(§3) PDE6 partially purified from bovine retinal rod and activated by trypsin was used. A racemic mixture of flosequinan, and each enantiomer of flosequinan, all at a molar concentration of 100 μM, were independently incubated with 0.2 μg/ml active PDE6 and 100 μM cGMP containing 0.1 μM [^3H]cGMP in Tris buffer pH 7.5 for 20 minutes at 30° C. Each reaction was terminated by boiling for 2 minutes. The resulting GMP was converted to guanosine by addition of 10 mg/ml snake venom nucleotidase, and further incubated at 30° C. for 10 minutes. Unhydrolyzed cGMP was bound to AGI-X2 resin, and [^3H]guanosine remaining in the aqueous phase was quantitated by scintillation counting.

[3] = target: T2, PDE1 partially purified from bovine heart (Bos taurus, UniProt P14100); assay: PDE1 enzyme inhibition assay (Example 3); assay type: biochemical; details: 100 μM
T2 construct: PDE1 partially purified from bovine heart was used; from tissue; host or cells: bovine heart
Method: as §1
as §2, with “PDE1 partially” for “PDE4 partially”, “from bovine heart” for “from human U-937 pronocytic cells”, “with 13” for “with 20”, “μg PDE1 enzyme, 1.0” for “μg PDE4 enzyme and 1 μM cAMP containing 0.01”, “[^3H]cAMP and CaCl2/calmodulin” for “[^3H]cAMP”

[4] = target: T3, PDE2 partially purified from human platelets (Homo sapiens, UniProt O00408); assay: PDE2 enzyme inhibition assay (Example 3); assay type: biochemical; details: 100 μM
T3 construct: PDE2 partially purified from human platelets was used; from tissue; host or cells: human platelets
T3 sequence (O00408 whole entry): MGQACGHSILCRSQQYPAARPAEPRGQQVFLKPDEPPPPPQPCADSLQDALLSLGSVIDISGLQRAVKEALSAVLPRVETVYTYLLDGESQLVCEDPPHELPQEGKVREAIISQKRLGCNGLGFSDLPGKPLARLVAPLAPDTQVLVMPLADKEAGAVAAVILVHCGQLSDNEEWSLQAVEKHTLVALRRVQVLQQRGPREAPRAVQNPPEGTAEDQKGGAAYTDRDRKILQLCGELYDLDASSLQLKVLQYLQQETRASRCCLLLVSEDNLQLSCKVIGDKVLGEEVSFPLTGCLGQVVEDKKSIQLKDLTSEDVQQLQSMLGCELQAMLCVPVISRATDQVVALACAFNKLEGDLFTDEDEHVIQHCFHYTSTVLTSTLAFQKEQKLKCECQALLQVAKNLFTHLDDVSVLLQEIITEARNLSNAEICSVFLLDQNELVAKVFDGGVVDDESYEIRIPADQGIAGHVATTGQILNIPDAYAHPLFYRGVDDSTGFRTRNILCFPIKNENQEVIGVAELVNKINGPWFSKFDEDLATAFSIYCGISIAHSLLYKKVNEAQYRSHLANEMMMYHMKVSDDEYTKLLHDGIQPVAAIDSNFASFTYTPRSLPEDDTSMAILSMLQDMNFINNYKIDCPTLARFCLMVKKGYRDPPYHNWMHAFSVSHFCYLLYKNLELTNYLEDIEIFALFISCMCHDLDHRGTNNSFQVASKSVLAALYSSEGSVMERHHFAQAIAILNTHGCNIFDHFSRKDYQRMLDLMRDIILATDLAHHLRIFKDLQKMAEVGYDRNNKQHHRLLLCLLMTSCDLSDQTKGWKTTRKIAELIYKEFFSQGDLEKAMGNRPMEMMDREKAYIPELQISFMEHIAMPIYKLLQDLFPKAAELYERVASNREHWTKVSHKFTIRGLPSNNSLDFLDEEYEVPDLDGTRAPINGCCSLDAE
Method: as §1
as §2, with “PDE2 partially” for “PDE4 partially”, “human platelets” for “human U-937 pronocytic cells”, “with 23” for “with 20”, “μg PDE2 enzyme, 25” for “μg PDE4 enzyme and 1”, “containing 0.05” for “containing 0.01”

[5] = target: T4, PDE3 partially purified from human platelets (Homo sapiens, UniProt Q14432); assay: PDE3 enzyme inhibition assay (Example 3); assay type: biochemical; details: for % Inhibition of PDE3: 100 μM
T4 construct: PDE3 partially purified from human platelets was used; from tissue; host or cells: human platelets
T4 sequence (Q14432 whole entry): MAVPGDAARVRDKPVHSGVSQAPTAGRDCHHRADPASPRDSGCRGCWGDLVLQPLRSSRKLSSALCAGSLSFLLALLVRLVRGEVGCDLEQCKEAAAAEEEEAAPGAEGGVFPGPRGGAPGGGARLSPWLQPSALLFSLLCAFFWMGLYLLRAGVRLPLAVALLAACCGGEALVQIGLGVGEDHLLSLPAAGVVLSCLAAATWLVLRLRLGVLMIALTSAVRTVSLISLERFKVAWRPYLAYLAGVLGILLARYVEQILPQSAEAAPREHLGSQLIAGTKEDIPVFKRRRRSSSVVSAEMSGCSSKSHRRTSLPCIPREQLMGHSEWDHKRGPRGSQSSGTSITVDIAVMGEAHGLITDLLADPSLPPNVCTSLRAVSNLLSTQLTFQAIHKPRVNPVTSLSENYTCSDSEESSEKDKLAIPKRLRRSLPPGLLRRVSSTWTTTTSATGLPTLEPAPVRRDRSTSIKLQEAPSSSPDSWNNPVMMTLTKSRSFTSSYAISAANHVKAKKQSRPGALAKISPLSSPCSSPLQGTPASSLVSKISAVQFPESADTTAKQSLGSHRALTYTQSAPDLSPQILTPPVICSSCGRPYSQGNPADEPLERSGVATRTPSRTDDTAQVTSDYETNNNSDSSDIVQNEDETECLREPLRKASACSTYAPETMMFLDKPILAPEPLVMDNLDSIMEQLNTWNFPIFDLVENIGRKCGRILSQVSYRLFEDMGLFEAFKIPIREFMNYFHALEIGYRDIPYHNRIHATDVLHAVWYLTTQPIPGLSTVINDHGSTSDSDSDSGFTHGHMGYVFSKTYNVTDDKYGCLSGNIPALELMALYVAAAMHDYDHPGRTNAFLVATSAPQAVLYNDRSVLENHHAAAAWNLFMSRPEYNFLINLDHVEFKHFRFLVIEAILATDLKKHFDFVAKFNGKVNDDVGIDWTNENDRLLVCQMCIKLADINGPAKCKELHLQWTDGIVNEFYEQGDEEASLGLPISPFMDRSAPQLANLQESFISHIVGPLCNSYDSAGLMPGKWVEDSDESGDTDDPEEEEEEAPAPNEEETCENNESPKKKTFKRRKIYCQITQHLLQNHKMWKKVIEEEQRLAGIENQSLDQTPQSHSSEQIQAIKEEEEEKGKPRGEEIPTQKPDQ
Method: as §1
as §2, with “PDE3 partially” for “PDE4 partially”, “human platelets” for “human U-937 pronocytic cells”, “with 13” for “with 20”, “μg PDE3” for “μg PDE4”

[6] = target: T5, PDE5 partially purified from human platelets (Homo sapiens, UniProt O76074); assay: PDE5 enzyme inhibition assay (Example 3); assay type: biochemical; details: 100 μM
T5 construct: PDE5 partially purified from human platelets was used; from tissue; host or cells: human platelets
Method: as §1
PDE5 partially purified from human platelets was used. A racemic mixture of flosequinan, and each enantiomer of flosequinan, all at a molar concentration of 100 μM, were independently incubated with 120 μg PDE5 enzyme and 1 μM cGMP containing 0.01 μM [^3H]cGMP in Tris buffer pH 7.5 for 20 minutes at 30° C. The reaction was terminated by boiling for 2 minutes, and the resulting GMP was converted to guanosine by addition of 10 mg/ml snake venom nucleotidase and further incubation at 30° C. for 10 minutes. Unhydrolyzed cGMP was bound to AGI-X2 resin, and the remaining [^3H]guanosine in the aqueous phase was quantitated by scintillation counting.

Solubility = assay type: physicochemical
Description: Thus, while the present invention is not limited by the form of oral administration, aqueous and organic solution of an enantiomer of flosequinan for oral administration is contemplated. Likewise, an enantiomer of flosequinan can be associated with a solid pharmaceutical carrier for solid oral administration (i.e., in pill form).

[7] = target: T1, PDE6 partially purified from bovine retinal rod and activated by trypsin; assay: PDE6 inhibition assay, Viagra vs racemic flosequinan (Example 1); assay type: biochemical
Method: as §3, with “used. In four separate reactions, Viagra at molar concentrations of 0.3 μM, 1.0 μM, and 3.0 μM, and a 100 μM” for “used. A”, “of flosequinan” for “of flosequinan, and each enantiomer of flosequinan, all at a molar concentration of 100 μM,”, “were” for “were independently”, “by raising the temperature to 100° C.” for “by boiling”, “venom nucleotidase” for “venom nucleotidase,”

[8] = system: phosphodiesterase III (PDE3); details: Gristwood et al. 1992; Frodsham et al. 1992; cited from earlier work

## Cn1cc([S+](C)[O-])c(=O)c2ccc(F)cc21 (stereo not drawn) [(−)−flosequinan]
[1]
  % Inhibition of PDE4: 1%
[2]
  % Inhibition of PDE6: 21%
[3]
  % Inhibition of PDE1: 11%
[4]
  % Inhibition of PDE2: 13%
[5]
  % Inhibition of PDE3: 5%
[6]
  % Inhibition of PDE5: 10%

## Cn1cc(C(N)=O)c(=O)c2ccc(Cl)cc21 [Example 4 e, 7-chloro-1-methyl-4-oxo-1,4-dihydroquinoline-3-carboxamide]
other
  melting point: > 240 °C

## Cn1cc(C(N)=O)c(=O)c2sccc21 [Example 4 b, 4-methyl-7-oxo-4,7-dihydrothieno[3,2-b]pyridine-6-carboxamide]
other
  melting point: 255 to 258 °C

## Cn1cc([S+](C)[O-])c(=O)c2ccc(F)cc21 (racemic) [Flosequinan, 7-fluoro-1-methyl-3-(methylsulphinyl)-4(1H)-quinolone]
[1]
  % Inhibition of PDE4: 24%
Solubility; organic solvents
  solubility in organic solvents: soluble in many organic solvents
Solubility; water
  solubility in water: water soluble
[7]; 100 μM vs sildenafil citrate 1 μM (100-fold lower molar concentration)
  inhibition of PDE6 compared to sildenafil citrate: approximately half as much inhibition of PDE6
[7]; vs Viagra 0.3 μM
  times more compound on a molar basis than Viagra for around 50% PDE6 inhibition: more than 300 times
[8]
  reported phosphodiesterase selectivity: selective inhibitor of phosphodiesterase III (PDE3)

## Cn1cc([S@@+](C)[O-])c(=O)c2ccc(F)cc21 [(+)−flosequinan]
[1]
  % Inhibition of PDE4: 6%
[2]
  % Inhibition of PDE6: 22%
[3]
  % Inhibition of PDE1: 28%
  PDE1 inhibitory activity compared with the (−) enantiomer of flosequinan: more PDE1 and PDE3 inhibitory activity
[4]
  % Inhibition of PDE2: 18%
[5]
  % Inhibition of PDE3: 32%
[5]; same molar concentration
  PDE3 inhibition compared to racemic mixture of flosequinan: greater inhibition of PDE3
[5]; same molar concentration, listed as (+) enantiomer of flosequinan
  PDE3 inhibition compared to the (−) enantiomer of flosequinan: more PDE1 and PDE3 inhibitory activity; also recorded: eight-fold increase
[6]
  % Inhibition of PDE5: 17%

Reference: US6562838B2, “Treatment of cardiovascular disease with quinolinone enantiomers” (R. T. Alamo Ventures I, L.L.C., priority 2001, dated 2003)
